PubChem BioAssay (NCI)
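How tested: cells in 96-well plates exposed to compound for 48 hours at five concentrations. TGI marks complete inhibition of growth.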

Key:
Assay in all cases: DTP human tumour cell line panel, 48 h
[1] = system: OVCAR-4 ovarian
[2] = system: SK-MEL-5 melanoma
[3] = system: NCI-H23 lung
[4] = system: XF 498 CNS
[5] = system: HOP-18 NSCLC
[6] = system: RXF 393 renal
[7] = system: HT29 colon
[8] = system: A549 NSCLC
[9] = system: SF-539 CNS
[10] = system: IGROV1 ovarian
[11] = system: SK-MEL-28 melanoma
[12] = system: KM12 colon
[13] = system: HCC-2998 colon
[14] = system: NCI-H522 lung
[15] = system: ACHN renal
[16] = system: SN12C renal
[17] = system: RXF-631 renal
[18] = system: NCI-H226 lung
[19] = system: UACC-257 melanoma
[20] = system: COLO 205 colon
[21] = system: DMS 114 small cell lung
[22] = system: OVCAR-8 ovarian
[23] = system: SF-268 CNS
[24] = system: DLD-1 colon
[25] = system: UO-31 renal
[26] = system: SK-MEL-2 melanoma
[27] = system: CCRF-CEM leukemia
[28] = system: UACC-62 melanoma
[29] = system: SNB-75 CNS
[30] = system: DMS 273 small cell lung
[31] = system: K-562 leukemia
[32] = system: HCT-116 colon
[33] = system: OVCAR-5 ovarian
[34] = system: U251 CNS
[35] = system: OVCAR-3 ovarian
[36] = system: HOP-92 NSCLC
[37] = system: MOLT-4 leukemia
[38] = system: HL-60(TB) leukemia
[39] = system: TK-10 renal
[40] = system: A498 renal
[41] = system: SNB-78 CNS
[42] = system: HOP-62 NSCLC
[43] = system: EKVX NSCLC
[44] = system: SR leukemia
[45] = system: SF-295 CNS
[46] = system: SW-620 colon
[47] = system: KM20L2 colon
[48] = system: CAKI-1 renal
[49] = system: SNB-19 CNS
[50] = system: M19-MEL melanoma
[51] = system: MALME-3M melanoma
[52] = system: SK-OV-3 ovarian
[53] = system: LOX IMVI melanoma
[54] = system: LXFL 529 NSCLC
[55] = system: NCI-H460 lung
[56] = system: M14 melanoma
[57] = system: 786-0 renal
[58] = system: RPMI-8226 leukemia
[59] = system: HCT-15 colon

In the case of `Cc1c2ccccc2c(CO)c2cc(F)c3ccccc3c12`, the TGI [1] is reported as 98.2 µM, the TGI [2] is reported as > 100 µM and the TGI [3] is reported as > 100 µM. The TGI [4] was 51 µM, the TGI [5] was 89.9 µM and the TGI [6] was 61.5 µM. The TGI [7] was 49 µM, the TGI [8] was > 100 µM and the TGI [9] was > 100 µM. The TGI [10] was 63.7 µM, the TGI [11] was > 100 µM and the TGI [12] was 56.3 µM. For the same molecule, the TGI [13] was > 100 µM, the TGI [14] was 26.3 µM and the TGI [15] was 58.2 µM. The TGI [16] was 33.3 µM, the TGI [17] was 30.7 µM and the TGI [18] was > 100 µM. The TGI [19] was > 100 µM, the TGI [20] was 32.2 µM and the TGI [21] was 34.2 µM. For the same molecule, the TGI [22] was 41.4 µM, the TGI [23] was 71.2 µM and the TGI [24] was 43.6 µM. The TGI [25] was > 100 µM, the TGI [26] was 36.7 µM and the TGI [27] was 68 µM. The TGI [28] was > 100 µM, the TGI [29] was > 100 µM and the TGI [30] was 32 µM. For the same molecule, the TGI [31] was > 100 µM, the TGI [32] was 40.3 µM and the TGI [33] was 80.6 µM. For the same molecule, the TGI [34] was 50.3 µM, the TGI [35] was 61.3 µM and the TGI [36] was 78.4 µM. It also gave a TGI [37] of 39.6 µM, a TGI [38] of 61 µM and a TGI [39] of 71.8 µM. For the same molecule, the TGI [40] was > 100 µM, the TGI [41] was 69.1 µM and the TGI [42] was 92.9 µM. The TGI [43] was > 100 µM, the TGI [44] was 70.7 µM and the TGI [45] was 57.8 µM. For the same molecule, the TGI [46] was > 100 µM, the TGI [47] was 48.6 µM and the TGI [48] was 79.4 µM. For the same molecule, the TGI [49] was > 100 µM, the TGI [50] was > 100 µM and the TGI [51] was > 100 µM. For the same molecule, the TGI [52] was 73.6 µM and the TGI [53] was 36.1 µM.
With `O=C(CCc1nnc2s/c(=C\c3ccc4c(c3)OCO4)c(=O)n12)Nc1cc(Cl)ccc1Cl` the TGI [1] was > 100 µM, the TGI [2] was > 100 µM and the TGI [3] was > 100 µM. For the same molecule, the TGI [4] was > 100 µM, the TGI [5] was > 100 µM and the TGI [6] was > 100 µM. For the same molecule, the TGI [7] was > 100 µM, the TGI [8] was > 100 µM and the TGI [9] was > 100 µM. For the same molecule, the TGI [10] was > 100 µM, the TGI [11] was > 100 µM and the TGI [12] was > 100 µM. For the same molecule, the TGI [54] was > 100 µM, the TGI [13] was > 100 µM and the TGI [14] was > 100 µM. The TGI [55] was > 100 µM, the TGI [15] was > 100 µM and the TGI [16] was > 100 µM. For the same molecule, the TGI [17] was > 100 µM, the TGI [18] was > 100 µM and the TGI [19] was > 100 µM. For the same molecule, the TGI [20] was > 100 µM, the TGI [21] was > 100 µM and the TGI [22] was > 100 µM. For the same molecule, the TGI [23] was > 100 µM, the TGI [24] was > 100 µM and the TGI [25] was > 100 µM. The TGI [26] was > 100 µM, the TGI [27] was > 100 µM and the TGI [28] was > 100 µM. For the same molecule, the TGI [29] was > 100 µM, the TGI [30] was > 100 µM and the TGI [31] was > 100 µM. For the same molecule, the TGI [32] was > 78.8 µM, the TGI [33] was > 100 µM and the TGI [34] was > 100 µM. The TGI [35] was > 100 µM, the TGI [36] was > 100 µM and the TGI [37] was > 100 µM. For the same molecule, the TGI [38] was > 100 µM, the TGI [39] was > 100 µM and the TGI [40] was > 100 µM. The TGI [56] was > 100 µM, the TGI [41] was > 100 µM and the TGI [57] was > 100 µM. For the same molecule, the TGI [42] was > 100 µM, the TGI [43] was > 100 µM and the TGI [44] was > 100 µM. The TGI [58] was > 100 µM, the TGI [45] was > 100 µM and the TGI [46] was > 60.5 µM. The TGI [47] was > 100 µM, the TGI [59] was > 56.6 µM and the TGI [48] was > 100 µM. For the same molecule, the TGI [49] was > 100 µM, the TGI [50] was > 100 µM and the TGI [51] was > 100 µM. For the same molecule, the TGI [52] was > 100 µM and the TGI [53] was > 100 µM.
